# Entries after “also recorded” stand apart in the source; their conditions may differ. Where two headings read alike, the source gives them in different places.
# B1: YqhD (Escherichia coli K-12) (protein)
# chain: MNNFNLHTPTRILFGKGAIAGLREQIPHDARVLITYGGGSVKKTGVLDQVLDALKGMDVLEFGGIEPNPAYETLMNAVKLVREQKVTFLLAVGGGSVLDGTKFIAAAANYPENIDPWHILQTGGKEIKSAIPMGCVLTLPATGSESNAGAVISRKTTGDKQAFHSAHVQPVFAVLDPVYTYTLPPRQVANGVVDAFVHTVEQYVTKPVDAKIQDRFAEGILLTLIEDGPKALKEPENYDVRANVMWAATQALNGLIGAGVPQDWATHMLGHELTAMHGLDHAQTLAIVLPALWNEKRDTKRAKLLQYAERVWNITEGSDDERIDAAIAATRNFFEQLGVPTHLSDYGLDGSSIPALLKKLEEHGMTQLGENHDITLDVSRRIYEAAR
# Key:
# [1] = system: LY180; assay: 5-HMF tolerance in tube cultures with cysteine supplement; format: cell-based, Escherichia coli
# Procedure: Tolerance to 5-HMF was tested using 13×100 mm closed tubes containing 4 ml AM1 and 5-HMF as indicated. When appropriate, antibiotics were included for plasmid maintenance. Tubes were inoculated to an initial density of 0.05 OD550 nm. […] To examine the effects of pntAB on furan tolerance, a multiwall plate containing 400 μl of AM1 (and 5-HMF or furfural) per well was inoculated as above. OD(420-580 nm bandwidth) was measured for 72 h using a Bioscreen C growth analyzer (Oy Growth Curves, Helsinki, Finland).
# [2] = system: LY180; assay: Effect of 5-HMF on anaerobic growth and fermentation; format: cell-based, Escherichia coli; settings: 1.0 g l^−1 5-HMF; 100 g l^−1 xylose
# Procedure: (§1) For fermentation experiments, seed cultures of LY180 and EMFR9 were grown overnight in small fermentors (37° C., 200 rpm) containing 350 ml of AM1 medium. Broth was maintained at pH 6.5 by the automatic addition of 2 N KOH. Upon reaching mid-log phase, experimental fermenters were inoculated to an initial cell density of 0.1 OD550 nm. (33 mg dry cell weight l^−1). Cell mass (OD550 nm) and furan levels were monitored at 12-h intervals as described previously (Martinez et al. 2000b Biotechnol Prog 16: 637-641).
# [3] = system: EMFR9; assay: as above; format: cell-based, Escherichia coli
# Procedure: as §1
# [4] = system: yqhD promoter; assay: Luciferase reporter activity from the yqhD promoter in LY180; format: cell-based, Escherichia coli
# Procedure: (§2) Cultures of E. coli carrying appropriate reporter plasmids were grown in AM1-5% xylose to OD 0.2-0.4. After addition of furfural, cells were pelleted, resuspended in Qiagen Qproteome bacterial lysis buffer, and stored at −80° C. The lysates were thawed at 37° C. for 2 minutes, and transferred to a white 96-well plate. An equal volume (50 uL) of PerkinElmer BriteLite reagent was added to each well, and the luminescence measured in a Promega Glomax 96-well luminometer.
# (§3) Plasmid pLOI4900 was constructed by transferring the firefly luciferase gene into pBAD24 (Guzman et al. 1995 J. Bacteriol. 177: 4121-4130), and then replacing the araC gene and pBAD promoter regions with a 150-bp region upstream from the yqhD gene in LY180. This putative yqhD promoter region was PCR amplified using primers PCT6 and PCT7 (Table 2).
# (§4) Cultures of E. coli carrying appropriate reporter plasmids were grown in AM1-50 g liter^−1 xylose to OD 0.4. After sampling the cultures, furfural was added, and incubation continued for 5, 15 or 30 min before sampling again. Untreated and furfural-treated cells were pelleted, resuspended in Qiagen Qproteome bacterial lysis buffer, and stored at −80° C. The lysates were thawed at 37° C. for 2 minutes, and transferred to a 96-well plate (white). An equal volume (50 μL) of PerkinElmer BriteLite reagent was added to each well. Luminescence was measured using a Promega Glomax 96-well luminometer.
# [5] = system: yqhD promoter; assay: Luciferase reporter activity from the yqhD promoter in EMFR17; format: cell-based, Escherichia coli; settings: EMFR17 with pPyqhD-luc; furfural addition
# Procedure: as §2
# [6] = system: yqhC, yqhD and dkgA transcripts in LY180; assay: Microarray analysis of transcripts after furfural addition; format: cell-based, Escherichia coli; settings: 15 min after 0.5 g liter^−1 furfural
# Procedure: For each strain, 4 replicate 350 ml cultures were grown to OD=[…] (0.66 g dcw liter^−1) and sampled. Furfural (0.5 g liter^−1) was added and samples were removed after 15 minutes of incubation. Culture samples were cooled in a dry ice/ethanol bath. Cells were pelleted at 4° C., resuspended in RNA Later (Qiagen), and stored at −80° C. Cell pellets from the 4 fermentors were pooled and used for RNA isolation (Qiagen RNeasy Mini Kit). RNA was treated with DNase, re-purified, and assessed for quality using an Agilent Bioanalyzer. RNA samples were submitted to Nimblegen for conversion to cDNA, labeling with Cy3, and hybridization to the E. coli K12 TI8333 microarray chip. This chip contains 385,000 60-mer probes derived from E. coli K12 strain MG1655, and has 5 replicates of each probe with an average of 18 probes per gene. Normalized expression data from Nimblegen was imported into ArrayStar (DNA Star) for analysis.
# [7] = system: yqhD promoter; assay: Luciferase reporter activity from the yqhD promoter in EMFR9; format: cell-based, Escherichia coli; settings: EMFR9 with yqhD promoter reporter plasmid; furfural addition
# Procedure: as §2, §4
# [8] = system: LY180; assay: Furfural toxicity (MIC) in tube cultures; format: cell-based, Escherichia coli; settings: for MIC: other compounds of hemicellulose hydrolysates, data not shown
# Procedure: (§5) Cultures were inoculated to an initial density of 17 mg dcw liter^−1. Cell mass was measured after incubation at 37° C. for 24 h and 48 h.
# [9] = system: EMFR9; assay: Furfural toxicity (MIC) in tube cultures; format: cell-based, Escherichia coli; settings: for MIC: other compounds of hemicellulose hydrolysates, data not shown
# Procedure: as §5
# [10] = system: LY180; assay: Furfural resistance and metabolism during pH-controlled fermentation; format: cell-based, Escherichia coli
# Procedure: (§6) Furfural resistance was compared in small fermenters (37° C., 150 rpm, pH 6.5, 350-ml working volume) using AM1 medium (Martinez et al. 2007 Biotechnol. Lett. 29:397-404) containing 100 g liter^−1 xylose. Seed cultures were inoculated to approximately 33 mg dcw liter^−1. Samples were removed periodically to measure cell mass, ethanol, and furfural.
# [11] = system: EMFR9; assay: as above; format: cell-based, Escherichia coli
# Procedure: as §6
# [12] = system: LY180ΔyqhC; assay: Furfural reduction in vivo during fermentation; format: cell-based, Escherichia coli; settings: furfural 0.5 g liter^−1
# Procedure: (§7) Cultures grown to a cell density of […] in fleakers containing 350 mL AM1-10% xylose medium were sampled immediately before and 15, 30, and 60 minutes after addition of furfural to 0.5 g/L. The residual furfural concentration in the culture was determined after removal of bacterial cells by centrifugation. A spectrophotometric method was used, as described previously.
# (§8) Cultures were grown to a cell density of 0.66 g dcw liter^−1 in fleakers containing 350 mL AM1-100 g liter^−1 xylose medium and sampled immediately before and 15, 30, and 60 minutes after addition of furfural (to 0.5 g liter^−1) as previously described (Miller et al. 2009 Appl. Environ. Microbiol. 75:4315-4323). Residual furfural was measured in the culture broth after centrifugation using a spectrophotometric method (Martinez et al. 2000 Biotechnol. Prog. 16: 637-641).
# [13] = system: LY180; assay: Furfural reduction in vivo during fermentation; format: cell-based, Escherichia coli; settings: furfural 0.5 g liter^−1
# Procedure: as §7, §8
# [14] = system: yqhD promoter; assay: Luciferase reporter activity from the yqhD promoter in LY180ΔyqhC; format: cell-based, Escherichia coli; settings: yqhC deletion strain with pLOI4900; furfural addition
# Procedure: as §2, §3
# as §4, with “An equal volume (50 μL) of PerkinElmer BriteLite reagent was added to each well.” left out
# [15] = target: T1, DkgA (Escherichia coli, UniProt Q46857); assay: Kinetic analysis of purified His-tagged DkgA; format: biochemical; settings: purified enzyme, with furfural; read-out: apparent Km for NADPH
# T1 construct: For-[…]; His-tag (N); made in house; host or cells: E. coli BL21 (DE3)
# Procedure: Both the yqhD and dkgA genes were cloned into a Novagen pET-15b vector and expressed as a His-tagged protein in E. coli BL21 (DE3). Cells were grown with IPTG to approximately 1.3 g dcw liter^−1, washed with 100 mM phosphate buffer, and lysed using MP Fast Prep-24 (MP Biomedical, Solon Ohio) and Lysing Matrix B. Crude extracts were passed through a 0.22 μm PVDF filter and further purified using a 1 mL HiTrap nickel column. Purified enzymes were dialyzed in 100 mM phosphate buffer using a Thermo Slide-A-Lyser and quantified using a Thermo BCA Protein Assay Kit. Purity of YqhD and DkgA were estimated to be greater than 90% by SDS-PAGE. […] Estimated sizes of the purified proteins were in agreement with predicted values of 43 kD and 31 kD, respectively. Apparent Kcat and apparent Km values were determined for both purified enzymes using NADPH and furfural.
# [16] = target: T1, DkgA; settings: Miller et al. 2009b; read-out: apparent Km for NADPH; cited from earlier work
# [17] = target: T2, YqhD (Escherichia coli, UniProt Q46856); design: For-[…]; His-tag (N); made in house; host or cells: E. coli BL21 (DE3); settings: Miller et al. 2009b; read-out: apparent Km for NADPH; cited from earlier work
# T2 sequence (Q46856 1-387): B1 chain
# [18] = target: T2, YqhD; assay: Kinetic analysis of purified His-tagged YqhD; settings: read-out: apparent Km for NADPH; purified enzyme, with furfural
# Procedure: (§9) Cells were grown with IPTG to approximately 1.3 g dcw liter^−1, washed with 100 mM phosphate buffer, and lysed using MP Fast Prep-24 (MP Biomedical, Solon Ohio) and Lysing Matrix B. Crude extracts were passed through a 0.22 μm PVDF filter and further purified using a 1 mL HiTrap nickel column. Purified enzymes were dialyzed in 100 mM phosphate buffer using a Thermo Slide-A-Lyser and quantified using a Thermo BCA Protein Assay Kit. […] Apparent Kcat and apparent Km values were determined for both purified enzymes using NADPH and furfural.
# [19] = substrate: O=Cc1ccco1; assay: cells, lysate or membranes named; settings: other: purified enzyme, NADPH-dependent reduction
# Procedure: as §9
# [20] = mineral salts media with 50 g liter^−1 xylose, 48 h
# [21] = xylose-mineral salts medium with yeast extract (1.0 g liter^−1)
# T1 sequence (Q46857 whole entry): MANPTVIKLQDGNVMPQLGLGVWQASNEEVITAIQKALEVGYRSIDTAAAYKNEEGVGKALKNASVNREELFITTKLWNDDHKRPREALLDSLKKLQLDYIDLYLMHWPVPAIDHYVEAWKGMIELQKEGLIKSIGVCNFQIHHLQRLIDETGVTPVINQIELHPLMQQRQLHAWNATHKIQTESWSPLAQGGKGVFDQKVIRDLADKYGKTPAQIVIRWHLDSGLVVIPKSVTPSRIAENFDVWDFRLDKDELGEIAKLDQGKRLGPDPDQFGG
molecule,measurement,setting,value
"O=Cc1ccc(CO)o1 [5-HMF, 5-hydroxymethyl furfural]",effect on growth,"[1]; 1 g l^−1 5-HMF, tube cultures, 24 h",partially inhibited
same,effect on growth,[2],completely inhibited
same,effect on cell yield or ethanol yield,[3]; 1.0 g l^−1 5-HMF,no detrimental effect
same,effect on ethanol production and growth,[3]; 2.5 g 5-HMF l^−1,slowed
same,time to completion of ethanol production and growth,[3]; 2.5 g 5-HMF l^−1,96 h
CC(=O)C=O [Methylglyoxal],effect on luciferase activity,"[4]; LY180(pLOI4900), 0.1 mM",increase luciferase activity
"N[C@@H](CS)C(=O)O [cysteine, L-cysteine]",restoration of growth by supplement,[1]; 100 μM cysteine with 1 g l^−1 5-HMF,completely restored
same,restoration of growth by supplement,[1]; 100 μM or 1000 μM cysteine with 2.5 g l^−1 5-HMF,not restored
same,effect of supplement on the MIC for 5-HMF,[1]; cysteine supplements,did not increase the MIC
O=Cc1ccco1 [furfural],effect on luciferase activity,"[4]; LY180(pLOI4900), furfural 1 mM, 5 mM and 10 mM, evident within 5 min",dose-dependent increase in luciferase activity
same,effect on luciferase activity,"[4]; LY180 carrying pPyqhD-luc, 15 minutes after addition of furfural",activity was increased
same,effect on luciferase expression,[5],luciferase expression was not increased
same,"up-regulation of yqhC, yqhD and dkgA transcripts",[6],> 6 fold
same,effect on luciferase expression,[7],luciferase expression was not increased; also recorded: did not increase luciferase activity
same,minimal inhibitory concentration (MIC) of furfural,[8]; [20],approximately 1.0 g liter^−1
same,furfural MIC,[8]; xylose replaced with glucose,1500 µg/mL
same,furfural MIC,[8]; [21],2000 µg/mL
same,minimal inhibitory concentration (MIC) of furfural,[9]; [20],~2000 µg/mL
same,furfural MIC,[9]; xylose replaced with glucose,2500 µg/mL
same,furfural MIC,[9]; [21],2500 µg/mL
same,effect on growth and ethanol production,"[10]; 0.4 g liter^−1 furfural, 100 g liter^−1 xylose",initial lag in growth and ethanol production
same,effect on growth and ethanol production,"[10]; 1.0 liter^−1 furfural, 72-h incubation",strongly inhibited
same,time to complete reduction of furfural,[11]; 0.4 g liter^−1 furfural,12 h
same,time to complete reduction of furfural,[11]; 1.0 g liter^−1 furfural,18 h
same,effect on growth and fermentation,[11]; furfural 0.4 g liter^−1 or 1.0 g liter^−1,virtually unaffected
same,in vivo rate of furfural reduction,[12],0.025±0.005 μmol min^−1 mg dcw^−1
same,in vivo rate of furfural reduction,[13],0.042±0.001 μmol min^−1 mg dcw^−1
same,effect on luciferase activity,[14],no furfural-dependent response was observed
OCc1ccco1 [furfuryl alcohol],MIC,[8],15000 µg/mL
same,MIC,[9],15000 µg/mL
COc1cc(C=O)cc(OC)c1O [syringaldehyde],MIC,[8],2000 µg/mL
same,MIC,[9],2000 µg/mL
NADPH,Km,[15],23 µM
same,Km,[16],23 µM
same,Km,[17],8 µM
same,Km,[18],8 µM
B1,Km,[19],9000 µM
